{
  "source": "patent EP4691487A1",
  "about": "“METHOD FOR INCREASING CONCENTRATION OF MACROMOLECULAR DRUG IN TUMOR TISSUE” (priority 2023, dated 2024)",
  "key": {"[1]": {"test_system": "human pancreatic cancer PC-07-0067 model", "test": "Anti-tumor efficacy in pancreatic cancer PC-07-0067 subcutaneous xenograft (PDX) model (Example 4)", "assay_type": "in vivo, BALB/c nude mice", "details": "TRODELVY 3 mg/kg IV BIW", "excerpt": "Establishment of PDX model: The human pancreatic cancer PC-07-0067 model was initially established from a surgically resected clinical sample, which was designated as P0 after being inoculated into nude mice. Inoculation of tumor tissue from P0 into the next generation of mice is referred to as P1, and so on for subsequent serial passages in nude mice. FP3 tumors were resuscitated from P2 generation tissue, and the next generation from FP3 was designated as FP4, and so on.\nTumor Inoculation: A 20-30 mm^3 PC-07-0067 FP5 tumor tissue piece was subcutaneously inoculated on the right flank of each mouse for tumor growth. The mice were randomized for dosing when the mean tumor volume reached approximately 100-150 mm^3.\nExperimental indicator: The experimental indicator is to examine whether tumor growth is inhibited, delayed or cured. Tumor diameter is measured with a vernier caliper twice a week. The formula for calculating tumor volume is: V = 0.5a × b^2, a and b represent the long diameter and short diameter of the tumor, respectively.\nThe anti-tumor efficacy of a compound is evaluated using the TGI(%) or tumor proliferation rate (T/C)(%). TGI(%) reflects the rate of tumor growth inhibition.\nTumor proliferation rate T/C (%): The calculation formula is as follows: T/C(%) = Ti/Vi × 100 %, wherein Vi is the mean tumor volume of the solvent control group at a certain measurement, and Ti is the mean tumor volume of the dosing group at the same measurement."}, "PC-07-006 model": {"test_system": "PC-07-006 model", "test": "Anti-human IgG secondary antibody staining of TRODELVY bound to tumor cells in vivo (Example 5)", "set-up": "species or system BALB/c nude mice", "details": "tissue samples from Example 4", "excerpt": "The experimental method was the same as in Example 3. The experimental tissue samples were from Example 4. The anti-human IgG secondary antibody was able to recognize the binding of TRODELVY to tumor cells in vivo. […] Example 6: In vivo pharmacological study of the tumor infiltration level of test article, fluorescein Cy5.5-labeled Hanquyou( ? ) antibody (H-Cy5.5), in a subcutaneous xenograft tumor model of human gastric cancer NCI-N87 cells in Balb/c-nude mice after administration of IN10018"}},
  "data": [
    {"sequence": "TRODELVY", "values": [
      {"measurement": "T/C", "setting": "[1]; after 14 days of dosing, T/C = Ti/Vi, IN10018 12.5 mg/kg PO QD", "result": 27.95, "unit": "%"},
      {"measurement": "TGI", "setting": "[1]; after 14 days of dosing, IN10018 12.5 mg/kg PO QD", "result": 78.91, "unit": "%"},
      {"measurement": "mean tumor volumes", "setting": "[1]; day 14, IN10018 12.5 mg/kg PO QD (tartrate salt weighed)", "result": 423, "unit": "mm^3"},
      {"measurement": "antibody-tumor cell binding", "setting": "PC-07-006 model", "result": "significant antibody-tumor cell binding"}
    ]}
  ]
}
